Reference: the supplement of paper PMC9244889
± gives the standard deviation of the averaged measurements.

Columns and labels:
[1] = tested on: Vero E6; assay: inhibition of SARS-CoV-2-induced cytopathic effect relative to cell and virus controls; higher = more antiviral protection; conditions: 72 h, virus: SARS-CoV-2 propagated original strain, 100 TCID50, assay detail: infected
Procedure: (§1)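 Vero E6 C1008 cells (2e4 cells/well) were treated with a 3-fold dilution series of each drug (monotherapy), with or without live SARS-CoV-2 (propagated original strain, 100 TCID50). After 72 h at 37 °C, viability was read with Viral ToxGlo (ATP luminescence). %Inhibition of virus-induced CPE and %Cytotoxicity (uninfected) were normalised to cell and virus controls. Triplicates. The paper excluded %Inhibition points with >25% cytotoxicity from its curve fits.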

[2] = tested on: Vero E6; assay: cytotoxicity relative to untreated cell control; higher = more toxic; conditions: 72 h, assay detail: uninfected
Procedure: as §1

SMILES	inhibition of SARS-CoV-2-induced cytopathic effect ([1]; 56.45 pM) [%]	inhibition of SARS-CoV-2-induced cytopathic effect ([1]; 0.000169351 µM) [%]	inhibition of SARS-CoV-2-induced cytopathic effect ([1]; 0.000508053 µM) [%]	inhibition of SARS-CoV-2-induced cytopathic effect ([1]; 0.00152416 µM) [%]	inhibition of SARS-CoV-2-induced cytopathic effect ([1]; 0.00457247 µM) [%]	inhibition of SARS-CoV-2-induced cytopathic effect ([1]; 0.0137174 µM) [%]	inhibition of SARS-CoV-2-induced cytopathic effect ([1]; 0.0411523 µM) [%]	inhibition of SARS-CoV-2-induced cytopathic effect ([1]; 0.123457 µM) [%]	inhibition of SARS-CoV-2-induced cytopathic effect ([1]; 0.37037 µM) [%]	inhibition of SARS-CoV-2-induced cytopathic effect ([1]; 1.11111 µM) [%]	inhibition of SARS-CoV-2-induced cytopathic effect ([1]; 3.33333 µM) [%]	inhibition of SARS-CoV-2-induced cytopathic effect ([1]; 10 µM) [%]	cytotoxicity ([2]; 56.45 pM) [%]	cytotoxicity ([2]; 0.000169351 µM) [%]	cytotoxicity ([2]; 0.000508053 µM) [%]	cytotoxicity ([2]; 0.00152416 µM) [%]	cytotoxicity ([2]; 0.00457247 µM) [%]	cytotoxicity ([2]; 0.0137174 µM) [%]	cytotoxicity ([2]; 0.0411523 µM) [%]	cytotoxicity ([2]; 0.123457 µM) [%]	cytotoxicity ([2]; 0.37037 µM) [%]	cytotoxicity ([2]; 1.11111 µM) [%]	cytotoxicity ([2]; 3.33333 µM) [%]	cytotoxicity ([2]; 10 µM) [%]
O=c1nc(NO)ccn1[C@@H]1O[C@H](CO)[C@@H](O)[C@H]1O [EIDD-1931]	-1.26 ± 1.9	0.00675 ± 3	0.0533 ± 0.39	0.601 ± 1.1	-0.506 ± 1.3	-0.261 ± 0.77	-0.787 ± 1.6	3.32 ± 2.9	13.2 ± 0.86	57.5 ± 4.3	78.3 ± 1.5	70.6 ± 1.6	-9.83 ± 7.4	-16.6 ± 5.9	-20 ± 1.8	-19.1 ± 1.4	-16.2 ± 4	-14.9 ± 3.3	-10.5 ± 15	-12.1 ± 5.8	-7.1 ± 3.5	-15.6 ± 2.5	7.25 ± 3.6	25.9 ± 2.2
CCc1c2c(nc3ccc(O)cc13)-c1cc3c(c(=O)n1C2)COC(=O)[C@]3(O)CC [SN-38]	-1.53 ± 1.2	-0.815 ± 1.2	-0.975 ± 0.93	-2.92 ± 1.5	-3.61 ± 0.72	-6.1 ± 1.1	-10.4 ± 1.1	-10.9 ± 1.3	-11.1 ± 0.12	-10.4 ± 0.52	-14.8 ± 0.46	-17.4 ± 0.36	-12.2 ± 4	-12.8 ± 1.2	-9.63 ± 4.5	-8.98 ± 5.2	-9.11 ± 3.9	-9.99 ± 3.2	5.49 ± 1.8	1.29 ± 5.6	1.32 ± 5.8	6.01 ± 4.5	43.6 ± 2.1	82.6 ± 1.2
CCS(=O)(=O)N1CC(CC#N)(n2cc(-c3ncnc4[nH]ccc34)cn2)C1 [baricitinib]	0.443 ± 1.1	-0.597 ± 0.76	1.73 ± 0.91	0.473 ± 0.57	0.0832 ± 0.89	-0.169 ± 1.2	-0.529 ± 0.88	-0.177 ± 1.5	0.117 ± 0.97	-1.55 ± 1.5	-2.06 ± 0.42	-1.06 ± 0.97	-23.8 ± 2.7	-24.9 ± 6.2	-20.2 ± 4.5	-17.5 ± 3.1	-20.6 ± 5.6	-15.3 ± 5.8	-17.8 ± 3.3	-13.4 ± 2.3	-9.61 ± 0.59	-14 ± 4.5	-9.73 ± 1.8	-10.3 ± 3.5
